Molecular target: T1, glucocorticoid receptor (Homo sapiens, UniProt P04150)
T1 construct: endogenous in cells; ATCC cat
T1 sequence (P04150 1-777): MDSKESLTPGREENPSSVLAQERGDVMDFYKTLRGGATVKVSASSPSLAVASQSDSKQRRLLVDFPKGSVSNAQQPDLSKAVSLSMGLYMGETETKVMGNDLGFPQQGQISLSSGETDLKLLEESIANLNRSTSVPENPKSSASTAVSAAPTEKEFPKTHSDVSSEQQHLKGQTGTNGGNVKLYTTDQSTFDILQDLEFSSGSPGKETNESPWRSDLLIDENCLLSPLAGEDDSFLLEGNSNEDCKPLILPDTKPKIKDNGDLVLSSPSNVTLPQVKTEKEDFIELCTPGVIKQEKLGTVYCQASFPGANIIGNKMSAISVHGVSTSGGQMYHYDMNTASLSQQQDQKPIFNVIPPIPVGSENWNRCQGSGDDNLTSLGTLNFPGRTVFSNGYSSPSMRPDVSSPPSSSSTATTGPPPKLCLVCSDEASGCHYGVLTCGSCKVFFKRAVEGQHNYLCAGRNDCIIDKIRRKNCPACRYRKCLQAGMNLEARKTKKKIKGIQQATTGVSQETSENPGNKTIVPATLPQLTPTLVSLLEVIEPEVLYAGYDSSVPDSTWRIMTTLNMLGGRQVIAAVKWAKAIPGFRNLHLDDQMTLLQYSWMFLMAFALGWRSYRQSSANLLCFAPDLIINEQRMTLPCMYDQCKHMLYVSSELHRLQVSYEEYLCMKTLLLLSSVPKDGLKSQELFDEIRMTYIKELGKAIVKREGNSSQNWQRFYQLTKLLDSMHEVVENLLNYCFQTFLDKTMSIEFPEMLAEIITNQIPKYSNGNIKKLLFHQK
Assay: Hep G2 TAT Ki: inhibition of dexamethasone-induced TAT in HepG2 cells (96 well)
Assay type: cell-based
Conditions: challenge of 100 nM dexamethasone, IC50 converted to Ki by Cheng and Prusoff equation
Method: Glucocorticoid mediated activation of TAT occurs by transactivation of glucocorticoid response elements in the TAT promoter by glucocorticoid receptor-agonist complex.
HepG2 cells were cultured using MEME media supplemented with 10% (v/v) foetal bovine serum; 2 mM L-glutamine and 1% (v/v) NEAA at 37° C., 5%/95% (v/v) CO2/air.
Compounds were serially half log diluted in 100% (v/v) dimethylsulphoxide from a 10 mM stock.
HepG2 cells were then lysed with 30 μl of cell lysis buffer containing a protease inhibitor cocktail for 15 minutes at 4° C. […] After 2 hours incubation at 37° C. the reaction was terminated by the addition of 15 μl of 10M aqueous potassium hydroxide solution, and the plates incubated for a further 30 minutes at 37° C.
[compound] and fitting the data to a 4 parameter logistic equation.

Ki [nM] | Compound
24 | Cc1cc2c(cnn2-c2ccc(F)cc2)cc1C1CN(S(=O)(=O)CC(C)C)CCN1CC(C)C (single isomer, unassigned) [Example 52, 1-(4-fluorophenyl)-5-(1-isobutyl-4-(isobutylsulfonyl)piperazin-2-yl)-6-methyl-1H-indazole]
180 | Cc1cc2c(cnn2-c2ccc(F)cc2)cc1C1CN(S(=O)(=O)c2cnn(C)n2)CCN1CC1(C#N)CC1 (stereo not drawn) [Example 69, 1-((2-(1-(4-fluorophenyl)-6-methyl-1H-indazol-5-yl)-4-((2-methyl-2H-1,2,3-triazol-4-yl)sulfonyl)piperazin-1-yl)methyl)cyclopropane-1-carbonitrile]
73 | Cc1cc2c(cnn2-c2ccc(F)cc2)cc1C1CN(S(=O)(=O)c2cnn(C)n2)CCN1Cc1ccon1 (single isomer, unassigned) [Example 81, 3-((2-(1-(4-fluorophenyl)-6-methyl-1H-indazol-5-yl)-4-((2-methyl-2H-1,2,3-triazol-4-yl)sulfonyl)piperazin-1-yl)methyl)isoxazole]
13 | Cc1cc2c(cnn2-c2ccc(F)cc2)cc1C1CN(S(=O)(=O)c2cnn(C)n2)CCN1CC1CCC1 (single isomer, unassigned) [Example 77, 5-(1-(cyclobutylmethyl)-4-((2-methyl-2H-1,2,3-triazol-4-yl)sulfonyl)piperazin-2-yl)-1-(4-fluorophenyl)-6-methyl-1H-indazole]
13 | Cc1cc2c(cnn2-c2ccc(F)cc2)cc1C1CN(S(=O)(=O)c2cnn(C)n2)CCN1CC1CCCC1 (single isomer, unassigned) [Example 78, 5-(1-(cyclopentylmethyl)-4-((2-methyl-2H-1,2,3-triazol-4-yl)sulfonyl)piperazin-2-yl)-1-(4-fluorophenyl)-6-methyl-1H-indazole]
25 | Cc1cc2c(cnn2-c2ccc(F)cc2)cc1C1CN(S(=O)(=O)C2CCC2)CCN1CC(C)C (single isomer, unassigned) [Example 116, 5-(4-(cyclobutylsulfonyl)-1-isobutylpiperazin-2-yl)-1-(4-fluorophenyl)-6-methyl-1H-indazole]
11 | Cc1ncc(S(=O)(=O)N2CCN(CCC(F)(F)F)C(c3cc4cnn(-c5ccc(F)cc5)c4cc3C)C2)s1 (single isomer, unassigned) [Example 133, 5-((3-(1-(4-fluorophenyl)-6-methyl-1H-indazol-5-yl)-4-(3,3,3-trifluoropropyl)piperazin-1-yl)sulfonyl)-2-methylthiazole]
510 | COCCS(=O)(=O)N1CCN(CC(C)C)C(c2cc3cnn(-c4ccc(F)cc4)c3cc2C)C1 (single isomer, unassigned) [Example 45, 1-(4-fluorophenyl)-5-(1-isobutyl-4-((2-methoxyethyl)sulfonyl)piperazin-2-yl)-6-methyl-1H-indazole]
27 | Cc1cc2c(cnn2-c2ccc(F)cc2)cc1C1CN(S(=O)(=O)c2cnn(CC(F)(F)F)c2)CCN1CC(C)C (single isomer, unassigned) [Example 110, 1-(4-fluorophenyl)-5-(1-isobutyl-4-((1-(2,2,2-trifluoroethyl)-1H-pyrazol-4-yl)sulfonyl)piperazin-2-yl)-6-methyl-1H-indazole]
57 | COc1cc2c(cnn2-c2ccc(F)cc2)cc1C1CN(S(=O)(=O)c2cnn(C)n2)CCN1CC(C)C (stereo not drawn) [Example 22, 1-(4-fluorophenyl)-5-(1-isobutyl-4-((2-methyl-2H-1,2,3-triazol-4-yl)sulfonyl)piperazin-2-yl)-6-methoxy-1H-indazole]
25 | Cc1cc2c(cnn2-c2ccc(F)cc2)cc1C1CN(S(=O)(=O)c2ccc(C#N)cc2)CCN1CC(C)C (single isomer, unassigned) [Example 98, 4-((3-(1-(4-fluorophenyl)-6-methyl-1H-indazol-5-yl)-4-isobutylpiperazin-1-yl)sulfonyl)benzonitrile]
330 | Cc1cc2c(cnn2-c2ccc(F)cc2)cc1C1CN(S(=O)(=O)c2cnn(C)n2)CCN1Cc1cccnc1 (stereo not drawn) [Example 18, 1-(4-fluorophenyl)-6-methyl-5-(4-((2-methyl-2H-1,2,3-triazol-4-yl)sulfonyl)-1-(pyridin-3-ylmethyl)piperazin-2-yl)-1H-indazole]
260 | CC(=O)N1CCN(CC(C)C)C(c2cc3cnn(-c4ccc(F)cc4)c3cc2C)C1 (stereo not drawn) [Example 66, 1-(3-(1-(4-fluorophenyl)-6-methyl-1H-indazol-5-yl)-4-isobutylpiperazin-1-yl)ethan-1-one]
81 | Cc1cc2c(cnn2-c2ccc(F)cc2)cc1C1CN(S(=O)(=O)c2cnn(C)n2)CCN1Cc1ccccc1 (stereo not drawn) [Example 2, 5-(1-benzyl-4-((2-methyl-2H-1,2,3-triazol-4-yl)sulfonyl)piperazin-2-yl)-1-(4-fluorophenyl)-6-methyl-1H-indazole]
390 | Cc1cc2c(cnn2-c2ccc(F)cc2)cc1C1CN(C(=O)c2cnn(C)n2)CCN1CC(C)C (stereo not drawn) [Example 67, (3-(1-(4-fluorophenyl)-6-methyl-1H-indazol-5-yl)-4-isobutylpiperazin-1-yl)(2-methyl-2H-1,2,3-triazol-4-yl)methanone]
23 | CCn1ncc(S(=O)(=O)N2CCN(CC(C)C)C(c3cc4cnn(-c5ccc(F)cc5)c4cc3C)C2)n1 (single isomer, unassigned) [Example 48, 5-(4-((2-ethyl-2H-1,2,3-triazol-4-yl)sulfonyl)-1-isobutylpiperazin-2-yl)-1-(4-fluorophenyl)-6-methyl-1H-indazole]
66 | Cc1cc2c(cnn2-c2ccc(F)cc2)cc1C1CN(S(=O)(=O)C2CC2)CCN1CC(C)C (stereo not drawn) [Example 8, 5-(4-(cyclopropylsulfonyl)-1-isobutylpiperazin-2-yl)-1-(4-fluorophenyl)-6-methyl-1H-indazole]
35 | Cc1cc2c(cnn2-c2ccc(F)cc2)cc1C1CN(S(=O)(=O)c2ccn(C)n2)CCN1CC(C)C (single isomer, unassigned) [Example 1, 1-(4-fluorophenyl)-5-(1-isobutyl-4-((1-methyl-1H-pyrazol-3-yl)sulfonyl)piperazin-2-yl)-6-methyl-1H-indazole]
19 | CCn1cc(S(=O)(=O)N2CCN(CC(C)C)C(c3cc4cnn(-c5ccc(F)cc5)c4cc3C)C2)cn1 (single isomer, unassigned) [Example 55, 5-(4-((1-ethyl-1H-pyrazol-4-yl)sulfonyl)-1-isobutylpiperazin-2-yl)-1-(4-fluorophenyl)-6-methyl-1H-indazole]
270 | Cc1cc2c(cnn2-c2ccc(F)cc2)cc1C1CN(S(=O)(=O)c2cnn(C)n2)CCN1CC1CC(=O)N(C)C1 (single isomer, unassigned) [Example 121, 4-((2-(1-(4-fluorophenyl)-6-methyl-1H-indazol-5-yl)-4-((2-methyl-2H-1,2,3-triazol-4-yl)sulfonyl)piperazin-1-yl)methyl)-1-methylpyrrolidin-2-one]
170 | Cc1cc2c(cnn2-c2ccc(F)cc2)cc1C1CN(S(=O)(=O)c2cnn(C)n2)CCN1CC1(F)CC1 (single isomer, unassigned) [Example 73, 5-(1-((1-fluorocyclopropyl)methyl)-4-((2-methyl-2H-1,2,3-triazol-4-yl)sulfonyl)piperazin-2-yl)-1-(4-fluorophenyl)-6-methyl-1H-indazole]
